Data from patent US9125913B2, “Bcl-2-selective apoptosis-inducing agents for the treatment of cancer and immune diseases” (AbbVie Inc., priority 2008, dated 2015).

test system: GST-Bcl-2; assay: TR-FRET binding assay, Bcl-2; settings: TR-FRET Ki values
In short: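 Ki values come from Wang's competitive-binding equation applied to TR-FRET signal (excitation 340/35 nm; emission 520/525 nm F-Bak peptide, 495/510 nm Tb antibody). Protein, probe and antibody incubated with compound 3 h at room temperature; dilution series began at 50 μM as 2× stock in 10% DMSO.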

Structure (SMILES) | Binding selectivity ratio (Bcl-XL Ki/Bcl-2 Ki)
CC1(C)CCC(CN2CCN(c3ccc(C(=O)NS(=O)(=O)c4ccc(NC[C@H]5CCCO5)c([N+](=O)[O-])c4)c(Oc4ccc5[nH]ccc5c4)c3)CC2)=C(c2ccc(Cl)cc2)C1 [EXAMPLE 370, 4-(4-{[2-(4-chlorophenyl)-4,4-dimethylcyclohex-1-en-1-yl]methyl}piperazin-1-yl)-2-(1H-indol-5-yloxy)-N-[(3-nitro-4-{[(2R)-tetrahydrofuran-2-ylmethyl]amino}phenyl)sulfonyl]benzamide] | >729.9
CC1(C)CCC(CN2CCN(c3ccc(C(=O)NS(=O)(=O)c4ccc(NCC(F)F)c([N+](=O)[O-])c4)c(Oc4ccc5[nH]ccc5c4)c3)CC2)=C(c2ccc(Cl)cc2)C1 [EXAMPLE 302, 4-(4-{[2-(4-chlorophenyl)-4,4-dimethylcyclohex-1-en-1-yl]methyl}piperazin-1-yl)-N-({4-[(2,2-difluoroethyl)amino]-3-nitrophenyl}sulfonyl)-2-(1H-indol-5-yloxy)benzamide] | >1309.5
CC(c1ccccc1-c1ccc(Cl)cc1)N1CCN(c2ccc(C(=O)NS(=O)(=O)c3ccc(NC4CCN(C)CC4)c([N+](=O)[O-])c3)c(Oc3cccc4[nH]ccc34)c2)CC1 (stereo not shown) [EXAMPLE 206, 4-{4-[1-(4′-chloro-1,1′-biphenyl-2-yl)ethyl]piperazin-1-yl}-2-(1H-indol-4-yloxy)-N-({4-[(1-methylpiperidin-4-yl)amino]-3-nitrophenyl}sulfonyl)benzamide] | >7916.4
CNc1ccc(S(=O)(=O)NC(=O)c2ccc(N3CCN(CC4=C(c5ccc(Cl)cc5)CC(C)(C)CC4)CC3)cc2Oc2cccc3[nH]ccc23)cc1[N+](=O)[O-] [EXAMPLE 246, 4-(4-{[2-(4-chlorophenyl)-4,4-dimethylcyclohex-1-en-1-yl]methyl}piperazin-1-yl)-2-(1H-indol-4-yloxy)-N-{[4-(methylamino)-3-nitrophenyl]sulfonyl}benzamide] | 490.9
CC1(C)CCC(CN2CCN(c3ccc(C(=O)NS(=O)(=O)c4ccc(NC5CCN(CCCC(F)(F)F)CC5)c([N+](=O)[O-])c4)c(Oc4ccc5[nH]ccc5c4)c3)CC2)=C(c2ccc(Cl)cc2)C1 [EXAMPLE 216, 4-(4-{[2-(4-chlorophenyl)-4,4-dimethylcyclohex-1-en-1-yl]methyl}piperazin-1-yl)-2-(1H-indol-5-yloxy)-N-[(3-nitro-4-{[1-(4,4,4-trifluorobutyl)piperidin-4-yl]amino}phenyl)sulfonyl]benzamide] | >1073.2
COCCNc1ccc(S(=O)(=O)NC(=O)c2ccc(N3CCN(CC4=C(c5ccc(Cl)cc5)CC(C)(C)CC4)CC3)cc2Oc2ccc3[nH]ccc3c2)cc1[N+](=O)[O-] [Example 179, 4-(4-{[2-(4-chlorophenyl)-4,4-dimethylcyclohex-1-en-1-yl]methyl}piperazin-1-yl)-2-(1H-indol-5-yloxy)-N-({4-[(2-methoxyethyl)amino]-3-nitrophenyl}sulfonyl)benzamide] | >3642.4
CCN1CCCC1CNC(=O)c1cc(S(=O)(=O)NC(=O)c2ccc(N3CCN(Cc4ccccc4-c4ccc(Cl)cc4)CC3)cc2Oc2ccccc2)ccc1OC (stereo not shown) [Example 33, 4-{4-[(4′-chloro-1,1′-biphenyl-2-yl)methyl]piperazin-1-yl}-N-{[3-({[(1-ethylpyrrolidin-2-yl)methyl]amino}carbonyl)-4-methoxyphenyl]sulfonyl}-2-phenoxybenzamide] | 49.9
CC1(C)CCC(CN2CCN(c3ccc(C(=O)NS(=O)(=O)c4ccc(NCC5CCOCC5)c(C#N)c4)c(Oc4cccc5[nH]ccc45)c3)CC2)=C(c2ccc(Cl)cc2)C1 [EXAMPLE 366, 4-(4-{[2-(4-chlorophenyl)-4,4-dimethylcyclohex-1-en-1-yl]methyl}piperazin-1-yl)-N-({3-cyano-4-[(tetrahydro-2H-pyran-4-ylmethyl)amino]phenyl}sulfonyl)-2-(1H-indol-4-yloxy)benzamide] | >121.0
C[C@H](c1ccccc1-c1ccc(Cl)cc1)N1CCN(c2ccc(C(=O)NS(=O)(=O)c3ccc(NCC4CCOCC4)c([N+](=O)[O-])c3)c(Oc3cccc4[nH]ccc34)c2)CC1 [EXAMPLE 255, 4-{4-[(1R)-1-(4′-chloro-1,1′-biphenyl-2-yl)ethyl]piperazin-1-yl}-2-(1H-indol-4-yloxy)-N-({3-nitro-4-[(tetrahydro-2H-pyran-4-ylmethyl)amino]phenyl}sulfonyl)benzamide] | >84.2
CC1(C)CCC(CN2CCN(c3ccc(C(=O)NS(=O)(=O)c4cnc(OCCN5CCOCC5)c(C#N)c4)c(Oc4cccc5[nH]ccc45)c3)CC2)=C(c2ccc(Cl)cc2)C1 [EXAMPLE 392, 4-(4-{[2-(4-chlorophenyl)-4,4-dimethylcyclohex-1-en-1-yl]methyl}piperazin-1-yl)-N-{[5-cyano-6-(2-morpholin-4-ylethoxy)pyridin-3-yl]sulfonyl}-2-(1H-indol-4-yloxy)benzamide] | 320.2
CN(C)CCCNc1ccc(S(=O)(=O)NC(=O)c2ccc(N3CCN(Cc4ccccc4-c4ccc(Cl)cc4)CC3)cc2Oc2ccc3cc[nH]c3c2)cc1[N+](=O)[O-] [Example 47, 4-{4-[(4′-chloro-1,1′-biphenyl-2-yl)methyl]piperazin-1-yl}-N-[(4-{[3-(dimethylamino)propyl]amino}-3-nitrophenyl)sulfonyl]-2-(1H-indol-6-yloxy)benzamide] | 15.7
CC1(C)CCC(CN2CCN(c3ccc(C(=O)NS(=O)(=O)c4ccc(NC5CCN(C6CCOCC6)CC5)c([N+](=O)[O-])c4)c(Oc4ccc5[nH]ccc5c4)c3)CC2CO)=C(c2ccc(Cl)cc2)C1 (stereo not shown) [EXAMPLE 219, 4-[4-{[2-(4-chlorophenyl)-4,4-dimethylcyclohex-1-en-1-yl]methyl}-3-(hydroxymethyl)piperazin-1-yl]-2-(1H-indol-5-yloxy)-N-({3-nitro-4-[(1-tetrahydro-2H-pyran-4-ylpiperidin-4-yl)amino]phenyl}sulfonyl)benzamide] | 126.8
CN(C)CC(=O)N1CCO[C@H](CNc2ccc(S(=O)(=O)NC(=O)c3ccc(N4CCN(CC5=C(c6ccc(Cl)cc6)CC(C)(C)CC5)CC4)cc3Oc3cccc4[nH]cnc34)cc2[N+](=O)[O-])C1 [EXAMPLE 437, 2-(1H-benzimidazol-4-yloxy)-4-(4-{[2-(4-chlorophenyl)-4,4-dimethylcyclohex-1-en-1-yl]methyl}piperazin-1-yl)-N-{[4-({[(2R)-4-(N,N-dimethylglycyl)morpholin-2-yl]methyl}amino)-3-nitrophenyl]sulfonyl}benzamide] | 51.4
CC1(C)CCC(CN2CCN(c3ccc(C(=O)NS(=O)(=O)c4ccc(NCCN5CCCC5=O)c([N+](=O)[O-])c4)c(Oc4ccc5[nH]ccc5c4)c3)CC2)=C(c2ccc(Cl)cc2)C1 [EXAMPLE 251, 4-(4-{[2-(4-chlorophenyl)-4,4-dimethylcyclohex-1-en-1-yl]methyl}piperazin-1-yl)-2-(1H-indol-5-yloxy)-N-[(3-nitro-4-{[2-(2-oxopyrrolidin-1-yl)ethyl]amino}phenyl)sulfonyl]benzamide] | 1438.5
CC(C)(C)c1ccc(CN2CCN(c3ccc(C(=O)NS(=O)(=O)c4ccc(NCC5CCOCC5)c([N+](=O)[O-])c4)c(Oc4ccc5[nH]ccc5c4)c3)CC2)c(-c2ccc(Cl)cc2)c1 [EXAMPLE 341, 4-{4-[(5-tert-butyl-4′-chloro-1,1′-biphenyl-2-yl)methyl]piperazin-1-yl}-2-(1H-indol-5-yloxy)-N-({3-nitro-4-[(tetrahydro-2H-pyran-4-ylmethyl)amino]phenyl}sulfonyl)benzamide] | >50.8
CN1CCC(Nc2ccc(S(=O)(=O)NC(=O)c3ccc(N4CCN(CC5=C(c6ccc(Cl)cc6)CCC(O)C5)CC4)cc3Oc3ccc4[nH]ccc4c3)cc2[N+](=O)[O-])CC1 (stereo not shown) [EXAMPLE 224, 4-(4-{[2-(4-chlorophenyl)-5-hydroxycyclohex-1-en-1-yl]methyl}piperazin-1-yl)-2-(1H-indol-5-yloxy)-N-({4-[(1-methylpiperidin-4-yl)amino]-3-nitrophenyl}sulfonyl)benzamide] | >99.9
CN(C)CC#Cc1ccc(-c2ccc(Cl)cc2)c(CN2CCN(c3ccc(C(=O)NS(=O)(=O)c4ccc(NCC5CCOCC5)c([N+](=O)[O-])c4)c(Oc4cccc5[nH]ccc45)c3)CC2)c1 [EXAMPLE 209, 4-[4-({4′-chloro-4-[3-(dimethylamino)prop-1-ynyl]-1,1′-biphenyl-2-yl}methyl)piperazin-1-yl]-2-(1H-indol-4-yloxy)-N-({3-nitro-4-[(tetrahydro-2H-pyran-4-ylmethyl)amino]phenyl}sulfonyl)benzamide] | >2476.0
CC1(C)CCC(CN2CCN(c3ccc(C(=O)NS(=O)(=O)c4cnc(OCC5(F)CCOCC5)c(F)c4)c(Oc4cccc5[nH]cnc45)c3)CC2)=C(c2ccc(Cl)cc2)C1 [EXAMPLE 442, 2-(1H-benzimidazol-4-yloxy)-4-(4-{[2-(4-chlorophenyl)-4,4-dimethylcyclohex-1-en-1-yl]methyl}piperazin-1-yl)-N-({5-fluoro-6-[(4-fluorotetrahydro-2H-pyran-4-yl)methoxy]pyridin-3-yl}sulfonyl)benzamide] | 3358.9
O=C(NS(=O)(=O)c1ccc(NC2CCN(C3CCOCC3)CC2)c([N+](=O)[O-])c1)c1ccc(N2CCN(CC3=C(c4ccc(Cl)cc4)CCC(O)C3)CC2)cc1Oc1ccc2[nH]ccc2c1 (stereo not shown) [EXAMPLE 225, 4-(4-{[2-(4-chlorophenyl)-5-hydroxycyclohex-1-en-1-yl]methyl}piperazin-1-yl)-2-(1H-indol-5-yloxy)-N-({3-nitro-4-[(1-tetrahydro-2H-pyran-4-ylpiperidin-4-yl)amino]phenyl}sulfonyl)benzamide] | >348.2
